Measured values reported in US4359468A, “Antiallergic N-[4-(indolyl)-piperidino-alkyl]-benzimidazolones” (Boehringer Ingelheim Ltd., priority 1981, dated 1982).

How the values were obtained:
mast cells = assay: Inhibition of Peritoneal Mast Cell Degranulation (MCD) in Rats Passively Sensitized with OA Antiserum or Induced by Compound 48/80; format: in vivo, rat; conditions: male CD rats, OA antiserum or Compound 48/80, i.v., i.p. or p.o., route not given
Protocol: Inhibition of Peritoneal Mast Cell Degranulation (MCD) in Rats Passively Sensitized with OA Antiserum or Induced by Compound 48/80
This test was adapted from that described by Mota, I. and Osler, A. G. "Mast Cell Degranulation,"
Male CD rats (150-160 gm) were divided into 5 groups as follows:
Group I: Nonspecific MCD control (3 rats)
Group II: Positive MCD control (5 rats)
Groups III, IV, V: Positive MCD following test compound (5 rats each)
Group I was injected intraperitoneally with 3 ml of normal rat serum. Groups II through V were intraperitoneally administered 3 ml of an antiserum predetermined to produce a 60-80 percent greater degranulation than normal rat serum. Eighteen to 24 hours later, test compound was administered (i.e., i.v. immediately, i.p. 5 minutes, or p.o. 20 minutes) before i.p. antigen challenge with 0.5 mg/kg of 2×crystalline ovalbumin in a concentration of 0.005 percent saline. Fifteen minutes after challenge, the rats were killed by asphyxiation with CO2. […]
Microscopic slides of the mesentery were prepared and analyzed by a modification of the method by Fugner, A. "An Improved Method for the Study of Reaginmediated Mast Cell Degranulation in Rats," Experientia, 29: 708, 1973, […]
The results were calculated and expressed as percent of inhibition of degranulation as follows: [formula]

[1] = system: histamine-induced blueing in rat skin; assay: In Vivo Inhibition of Histamine-Induced Blueing in Rat Skin; conditions: po, male CD rats, 50 percent reduction in blue-spotted area, p.o., 3 μg histamine intradermal, read-out: ED50 Antihist.
Protocol: In Vivo Inhibition of Histamine-Induced Blueing in Rat Skin
Male CD rats (150-160 gm) were divided into two groups. The hair was removed from an area of the back with an electric clipper. An untreated control group received 10 ml/kg, p.o. of normal saline in 1 percent acacia. Experimental groups received test compound suspended in 1 percent acacia at a volume of 10 ml/kg, p.o. Two percent Evans Blue dye in normal saline in a volume of 0.5 ml was administered intravenously to all animals. Twenty minutes following administration of the test compound or vehicle, 3 μg of histamine diphosphate in 0.1 ml of normal saline was injected intradermally in two sites of the shaved area on the backs of the rats. Fifteen minutes following histamine injection, all rats were killed by CO2 asphyxiation.
An incision was made along the spine and the skin cleanly separated. The dorsal skin was reflected and the diameters of the blue-spotted wheals were measured. The area in square millimeters was determined for each resulting blue spot and the mean area for the control and test groups were calculated. The mean area for the control group was considered as a 100 percent response. Test group results were expressed as a percentage change from control. An ED50 (i.e., defined as a 50 percent reduction in blue-spotted area) was determined by linear regression analysis.

[2] = system: passive cutaneous anaphylaxis skin reaction in rats (anti-OA reaginic serum, ovalbumin challenge); assay: Rat Passive Cutaneous Anaphylaxis (PCA) Test; format: in vivo; conditions: male CD rats, 50 percent reduction in area, i.v. or oral, route not given
Protocol: Rat Passive Cutaneous Anaphylaxis (PCA) Test
The test used was essentially that described by El-Azab, J. and Stewart, P. B., "Pharmacological Profile of a New Anti-Allergic Compound PRD-92-EA." Int. Archs. Allergy Appl. Immunol. 55: 350-361, 1977;
A dilution of anti-OA reaginic serum was used to give reproducible skin reactions with diameters between 10-15 mm in unsensitized rats. This anti-serum dilution was injected in a volume of 0.1 ml intradermally on each side of the shaved backs of male CD rats (150-160 gm) before antigen challenge. Test compounds which were evaluated by the intravenous (i.v.) route were dissolved in water, and mixed with 0.5 ml of a solution containing 5 mg ovalbumin and 2 percent Evans Blue and administered at a volume of 1 ml/kg. […]
Thirty minutes after antigenic challenge, i.e. for either intravenous or oral administration, the rats were killed by CO2 asphyxiation. A midline incision was made along the spine and the skin was reflected and the diameter of the blued areas were measured in millimeters. The mean area in square millimeters was determined for each spot and the mean circular area of that test group was calculated. The mean area in square millimeters of an untreated control group was considered as a 100 percent response, and the results of the test compound groups were expressed as a percent change from the control values. […]

Row | Structure (SMILES) | ED50 (mast cells; Rattus norvegicus, Mast cell) | ED50 [1] | ED50 [2] | ED50 MCD (mast cells)
1 | O=c1[nH]c2ccccc2n1CCCN1CCC(c2c[nH]c3ccccc23)CC1 [Example 4, N-{3-[4-(3-indolyl)-piperidino]-propyl}-benzimidazolone] | 3 to 6.4 mg/kg | 8.7 mg/kg | 1.6 mg/kg | –
2 | O=c1[nH]c2ccccc2n1CCCN1CCN(C(c2ccccc2)c2ccccc2)CC1 [Oxatomide] | – | 8.1 mg/kg | 8.3 mg/kg | neg.
